Read-outs that look alike come from different tables or passages of the source.
Test system: ZIKV replicon
Assay: ZIKV replication inhibition assay (NanoLuc replicon in Vero cells)
Details: Zika virus, Vero, 72 h
[1] = read-out: ZIKA Cell_Nanoluc, Vero cells with stable ZIKV replicon, 72 h, Nano-Glo readout

In the case of `O=C(Cc1ccccc1)Nc1cc(NC(=O)[N-]c2c[n+](CC3CCCCN3)no2)cc(C(F)(F)F)c1` (centres unmarked) [Example 125, ((3-(2-Phenylacetamido)-5-(trifluoromethyl)-phenyl)carbamoyl)(3-(piperidin-2-ylmethyl)-1,2,3-oxadiazol-3-ium-5-yl)amide], the EC50 [1] is reported as 1 to 20 µM.

`Cc1cccc2c1OCC2C(=O)Nc1cc(NC(=O)[N-]c2c[n+](Cc3ccccn3)no2)cc(C(F)(F)F)c1` (centres unmarked) [Example 67] showed an EC50 (read-out: ZIKA Cell_Nanoluc) of 1 to 20 µM.

`O=C([N-]c1c[n+](Cc2ccccn2)no1)Nc1cc(NC(=O)c2cc3n(n2)CCS(=O)(=O)C3)cc(C(F)(F)F)c1` [Example 64] was tested, and the EC50 (read-out: ZIKA Cell_Nanoluc) was greater than 20 µM.

`NCc1ccccc1C[n+]1cc([N-]C(=O)Nc2cc(NC(=O)Cc3ccccc3)cc(C(F)(F)F)c2)on1` [Example 114, (3-(2-(Aminomethyl)benzyl)-1,2,3-oxadiazol-3-ium-5-yl)((3-(2-phenylacetamido)-5-(trifluoromethyl)phenyl)carbamoyl)amide] was tested, and the EC50 [1] was 1 to 20 µM.

`Cc1ccc(CN2CCC(C(=O)Nc3cc(NC(=O)[N-]c4c[n+](Cc5ccccn5)no4)cc(C(F)(F)F)c3)CC2)o1` [Example 70] was tested, and the EC50 (read-out: ZIKA Cell_Nanoluc) was greater than 20 µM.

`O=C(C#Cc1ccccc1)Nc1cc(NC(=O)[N-]c2c[n+](Cc3ccccn3)no2)cc(C(F)(F)F)c1` [Example 46] was tested, and the EC50 (read-out: ZIKA Cell_Nanoluc) was 1 to 20 µM.

In the case of `O=C([N-]c1c[n+](Cc2ccccn2)no1)Nc1cc(NC(=O)C2CCCC3(CCOC3)O2)cc(C(F)(F)F)c1` (centres unmarked) [Example 84], the EC50 (read-out: ZIKA Cell_Nanoluc) is reported as 1 to 20 µM.

With `Cc1nc(N)ncc1-c1ccc(C[n+]2cc([N-]C(=O)Nc3cc(NC(=O)Cc4ccccc4)cc(C(F)(F)F)c3)on2)nc1` [Example 25, (3-((5-(2-Amino-4-methylpyrimidin-5-yl)pyridin-2-yl)methyl)-1,2,3-oxadiazol-3-ium-5-yl)((3-(2-phenylacetamido)-5-(trifluoromethyl)phenyl)carbamoyl)amide] the EC50 [1] was 1 to 20 µM.

With `O=C(Cc1ccc2nc[nH]c2c1)Nc1cc(NC(=O)[N-]c2c[n+](Cc3ccccn3)no2)cc(C(F)(F)F)c1` [Example 124, ((3-(2-(1H-Benzo[d]imidazol-6-yl)acetamido)-5-(trifluoromethyl)phenyl)carbamoyl)(3-(pyridin-2-ylmethyl)-1,2,3-oxadiazol-3-ium-5-yl)amide] the EC50 [1] was greater than 20 µM.

With `O=C([N-]c1c[n+](Cc2ccccn2)no1)Nc1cc(NC(=O)C2CCCc3cn[nH]c32)cc(C(F)(F)F)c1` (centres unmarked) [Example 38, (3-(Pyridin-2-ylmethyl)-1,2,3-oxadiazol-3-ium-5-yl)((3-(4,5,6,7-tetrahydro-1H-indazole-7-carboxamido)-5-(trifluoromethyl)phenyl)carbamoyl)amide] the EC50 [1] was 1 to 20 µM.

Work on `Cc1nc(CC(=O)Nc2cc(NC(=O)[N-]c3c[n+](Cc4ccccn4)no3)cc(C(F)(F)F)c2)cs1` [Example 41, ((3-(2-(2-Methylthiazol-4-yl)acetamido)-5-(trifluoromethyl)phenyl)-carbamoyl)(3-(pyridin-2-ylmethyl)-1,2,3-oxadiazol-3-ium-5-yl)amide] yielded an EC50 [1] of 1 to 20 µM.

`COc1ncc(-c2ccc(C[n+]3cc([N-]C(=O)Nc4cc(NC(=O)Cc5ccccc5)cc(C(F)(F)F)c4)on3)nc2)c(C)n1` [Example 13, (3-((5-(2-Methoxy-4-methylpyrimidin-5-yl)pyridin-2-yl)methyl)-1,2,3-oxadiazol-3-ium-5-yl)((3-(2-phenylacetamido)-5-(trifluoromethyl)phenyl)carbamoyl)amide] was tested, and the EC50 [1] was 0.1 to 1 µM.

`O=C(Cc1c[nH]c2cccnc12)Nc1cc(NC(=O)[N-]c2c[n+](Cc3ccccn3)no2)cc(C(F)(F)F)c1` [Example 36] gave an EC50 (read-out: ZIKA Cell_Nanoluc) of 1 to 20 µM.

Molecule `COC(=O)c1ccc(C[n+]2cc([N-]C(=O)Nc3cc(NC(=O)Cc4ccccc4)cc(C4CC4)c3)on2)nc1` [Example 128, ((3-Cyclopropyl-5-(2-phenylacetamido)phenyl)-carbamoyl)(3-((5-(methoxycarbonyl)pyridin-2-yl)methyl)-1,2,3-oxadiazol-3-ium-5-yl)amide] has an EC50 [1] of 1 to 20 µM.

In the case of `O=C(Cc1ccccc1)Nc1cc(NC(=O)[N-]c2c[n+](Cc3ccc(Br)cn3)no2)cc(C(F)(F)F)c1` [Example 12, (3-((5-Bromopyridin-2-yl)methyl)-1,2,3-oxadiazol-3-ium-5-yl)((3-(2-phenylacetamido)-5-(trifluoromethyl)phenyl)carbamoyl)amide], the EC50 [1] is reported as 0.1 to 1 µM.

Molecule `NCc1ccc(C[n+]2cc([N-]C(=O)Nc3cc(NC(=O)Cc4ccccc4)cc(C(F)(F)F)c3)on2)cc1` [Example 56, (3-(4-(Aminomethyl)benzyl)-1,2,3-oxadiazol-3-ium-5-yl)((3-(2-phenylacetamido)-5-(trifluoromethyl)phenyl)carbamoyl)amide] has an EC50 [1] of 1 to 20 µM.

`O=C([N-]c1c[n+](Cc2ccccn2)no1)Nc1cc(N2CC(c3ccccc3)CC2=O)cc(C(F)(F)F)c1` (centres unmarked) [Example 122, ((3-(2-Oxo-4-phenylpyrrolidin-1-yl)-5-(trifluoromethyl)phenyl)carbamoyl)(3-(pyridin-2-ylmethyl)-1,2,3-oxadiazol-3-ium-5-yl)amide] was tested, and the EC50 [1] was 1 to 20 µM.

For `O=C(Cc1ccccc1)Nc1cc(NC(=O)[N-]c2c[n+](CC3CC(NCc4ccc(O)cn4)C3)no2)cc(C(F)(F)F)c1` (centres unmarked) [Example 134, (3-((3-(((5-Hydroxypyridin-2-yl)methyl)amino)-cyclobutyl)methyl)-1,2,3-oxadiazol-3-ium-5-yl)((3-(2-phenylacetamido)-5-(trifluoromethyl)-phenyl)carbamoyl)amide], the EC50 [1] was greater than 20 µM.

Molecule `COc1ncc(-c2ccc(C[n+]3cc([N-]C(=O)Nc4cc(NC(=O)CCc5ccccc5)cc(C(F)(F)F)c4)on3)cc2)c(C)n1` [Example 9, (3-(4-(2-Methoxy-4-methylpyrimidin-5-yl)benzyl)-1,2,3-oxadiazol-3-ium-5-yl)((3-(3-phenylpropanamido)-5-(trifluoromethyl)phenyl)carbamoyl)amide] has an EC50 [1] of 0.1 to 1 µM.

`O=C([N-]c1c[n+](Cc2ccccn2)no1)Nc1cc(NC(=O)C2CN(C3CC3)C2)cc(C(F)(F)F)c1` [Example 77] was tested, and the EC50 (read-out: ZIKA Cell_Nanoluc) was greater than 20 µM.

In the case of `O=C(Cc1ccccc1)Nc1cc(NC(=O)[N-]c2c[n+](CC3CCCNC3)no2)cc(C(F)(F)F)c1` (centres unmarked) [Example 110, ((3-(2-Phenylacetamido)-5-(trifluoromethyl)phenyl)carbamoyl)(3-(piperidin-3-ylmethyl)-1,2,3-oxadiazol-3-ium-5-yl)amide], the EC50 [1] is reported as greater than 20 µM.

Molecule `CN1CCCCC1C[n+]1cc([N-]C(=O)Nc2cc(NC(=O)Cc3ccccc3)cc(C(F)(F)F)c2)on1` (centres unmarked) [Example 105, (3-((1-Methylpiperidin-2-yl)methyl)-1,2,3-oxadiazol-3-ium-5-yl)((3-(2-phenylacetamido)-5-(trifluoromethyl)phenyl)carbamoyl)amide] has an EC50 [1] of 0.1 to 1 µM.

In the case of `O=C(Cc1ccccc1)Nc1cc(Cl)cc(NC(=O)[N-]c2c[n+](Cc3ccccn3)no2)c1` [Example 58, ((3-Chloro-5-(2-phenylacetamido)phenyl)carbamoyl)(3-(pyridin-2-ylmethyl)-1,2,3-oxadiazol-3-ium-5-yl)amide], the EC50 [1] is reported as 1 to 20 µM.

`O=C([N-]c1c[n+](Cc2ccccn2)no1)Nc1cc(NC(=O)c2cncn2C2CC2)cc(C(F)(F)F)c1` [Example 75] was tested, and the EC50 (read-out: ZIKA Cell_Nanoluc) was greater than 20 µM.

In the case of `CN1CCC(C[n+]2cc([N-]C(=O)Nc3cc(NC(=O)Cc4ccccc4)cc(C(F)(F)F)c3)on2)CC1` [Example 106, (3-((1-Methylpiperidin-4-yl)methyl)-1,2,3-oxadiazol-3-ium-5-yl)((3-(2-phenylacetamido)-5-(trifluoromethyl)phenyl)carbamoyl)amide], the EC50 [1] is reported as 1 to 20 µM.

`Nc1ccc(CC(=O)Nc2cc(NC(=O)[N-]c3c[n+](Cc4ccccn4)no3)cc(C(F)(F)F)c2)cn1` [Example 42] showed an EC50 (read-out: ZIKA Cell_Nanoluc) of 1 to 20 µM.

For `NC1C2COCC1CC([n+]1cc([N-]C(=O)Nc3cc(NC(=O)Cc4ccccc4)cc(C(F)(F)F)c3)on1)C2` (centres unmarked) [Example 112, (3-(9-Amino-3-oxabicyclo[3.3.1]nonan-7-yl)-1,2,3-oxadiazol-3-ium-5-yl)((3-(2-phenylacetamido)-5-(trifluoromethyl)phenyl)carbamoyl)amide], the EC50 [1] was greater than 20 µM.

For `O=C([N-]c1c[n+](Cc2ccccn2)no1)Nc1cc(NC(=O)C2CS(=O)(=O)CCO2)cc(C(F)(F)F)c1` (centres unmarked) [Example 88], the EC50 (read-out: ZIKA Cell_Nanoluc) was greater than 20 µM.

For `O=C(Cc1ccc(=O)[nH]c1)Nc1cc(NC(=O)[N-]c2c[n+](Cc3ccccn3)no2)cc(C(F)(F)F)c1` [Example 123, ((3-(2-(6-Oxo-1,6-dihydropyridin-3-yl)acetamido)-5-(trifluoromethyl)phenyl)-carbamoyl)(3-(pyridin-2-ylmethyl)-1,2,3-oxadiazol-3-ium-5-yl)amide], the EC50 [1] was greater than 20 µM.

For `NCc1cccc(C[n+]2cc([N-]C(=O)Nc3cc(NC(=O)Cc4ccccc4)cc(C(F)(F)F)c3)on2)c1` [Example 108, (3-(3-(Aminomethyl)benzyl)-1,2,3-oxadiazol-3-ium-5-yl)((3-(2-phenylacetamido)-5-(trifluoromethyl)phenyl)carbamoyl)amide], the EC50 [1] was 1 to 20 µM.

Molecule `NC1CC(C[n+]2cc([N-]C(=O)Nc3cc(NC(=O)Cc4ccccc4)cc(C(F)(F)F)c3)on2)C1` (centres unmarked) [Example 118, (3-((3-Aminocyclobutyl)methyl)-1,2,3-oxadiazol-3-ium-5-yl)((3-(2-phenylacetamido)-5-(trifluoromethyl)phenyl)carbamoyl)amide] has an EC50 [1] of 1 to 20 µM.

For `O=C([N-]c1c[n+](Cc2ccccn2)no1)Nc1cc(NC(=O)C23CCC(O)(CC2)C3)cc(C(F)(F)F)c1` [Example 66], the EC50 (read-out: ZIKA Cell_Nanoluc) was greater than 20 µM.

`NCc1ccc(CC(=O)Nc2cc(NC(=O)[N-]c3c[n+](Cc4ccccn4)no3)cc(C(F)(F)F)c2)cc1` [Example 27, ((3-(2-(4-(Aminomethyl)phenyl)acetamido)-5-(trifluoromethyl)phenyl)carbamoyl)(3-(pyridin-2-ylmethyl)-1,2,3-oxadiazol-3-ium-5-yl)amide] was tested, and the EC50 [1] was 1 to 20 µM.

`Cc1noc(C)c1-c1ccc([C@@H](CN)[n+]2cc([N-]C(=O)Nc3cc(NC(=O)Cc4ccccc4)cc(C(F)(F)F)c3)on2)cc1` [Example 24, (S)-(3-(2-Amino-1-(4-(3,5-dimethylisoxazol-4-yl)phenyl)ethyl)-1,2,3-oxadiazol-3-ium-5-yl)((3-(2-phenylacetamido)-5-(trifluoromethyl)phenyl)carbamoyl)amide] gave an EC50 [1] of 1 to 20 µM.

`Cn1ccc(CC(=O)Nc2cc(NC(=O)[N-]c3c[n+](Cc4ccccn4)no3)cc(C(F)(F)F)c2)n1` [Example 40] gave an EC50 (read-out: ZIKA Cell_Nanoluc) of 1 to 20 µM.

From EP4563146A1 (IRBM S.P.A., priority 2023, dated 2025)
